In assay [1] the test system is male Sprague-Dawley (S-D) rats. Put plainly: Feeding behavior after ICV oleic acid bolus. Particulars: for decrease in food intake compared with pre-injection basal levels: SC animals. In kind it is in vivo, rat. The text has this:
Animals and Experimental Design. Ten week-old male Sprague-Dawley (S-D) rats (Charles River Breeding Laboratories, Inc., Wilmington, Mass.) were housed in individual cages and subjected to a standard light dark cycle (0600-1800/1800-0600). At 14 days before the in vivo studies, all rats received implantations of ICV catheters by stereotaxic surgery as previously described (36). Rats were allowed to recover completely before initiation of all in vivo studies. Animals were fed a standard chow (SC, cat. no. 5001, Purina Mills Ltd, with 59% calories provided by carbohydrate, 28% by protein and 12% by fat, 3.3 kcal/g), a high sucrose (HS; animals were given free access to a 20% sucrose solution in addition to their standard chow diet), or a highly palatable high fat diet (HF, cat. no. 9389; Purina Mills Ltd., with 45% calories provided by carbohydrate, 22% by protein and 33% by fat, 5.32 kcal/g) which was designed by the supplementation of the SC diet with 10% lard. The lard contained 2% myristic acid, 24% palmitic acid, 13% stearic acid, 46% oleic acid, and 12% linoleic acid. The total composition of fats in the HF diet was 5.2% saturated, 6.2% monounsaturated, and 2.7% polyunsaturated fat by weight. The SC diet contained 1%, 1.5%, and 1.6% of saturated, monounsaturated, and polyunsaturated fats by weight, respectively. Five groups of animals ere included in the feeding and metabolic studies (described below) after three days on the following diet regimens (Table 2): 1) SC ad libitum (SC; ˜80 kcal/day); 2) HS ad libitum (HS; ˜95 kcal/day); 3) HF ad libitum (HF140; ˜140 kcal/day); 4) HF calorie restricted (HF55; ˜55 kcal/day); and 5) HF pair-fed to SC(HF80; ˜80 kcal/day). Central Delivery of OA. OA was complexed with the polymer hydroxypropyl-3-cyclodextrin (HPB, CTD Inc). […] OA was solubilized in 45% HPB to a final concentration of 17 mM. The HPB-OA solution was diluted in artificial cerebral spinal fluid (aCSF) to the appropriate concentration used for each ICV injections (30 or 300 nmol/5 μl). HPB alone at a similar concentration as in the OA studies was used in all vehicle control studies. Feeding Behavior Studies. This experimental protocol was designed to examine the acute effect of ICV OA on food intake in three experimental groups fed a standard chow (SC), a high sucrose diet (HS95) and a high fat diet (HF140). SC and HF140 animals were allowed to eat their diets ad libitum. HS animals were given free access to a 20% sucrose solution in addition to the standard chow diet for three days. Following three days of ad libitum feeding in all groups, on study day 0 (FIG. 5a), rats were given an ICV bolus injection of either […] of OA (30 nmol) or vehicle at a rate of 1 μl/min using a gas-tight syringe (Hamilton Corp) one hour before the start of the dark cycle. Food intake was measured at the same time daily for three days post-injection.

Assay [2] deals with Glc-6-Pase mRNA. Put plainly: Hepatic Glc-6-Pase mRNA after ICV OA (northern blot). In kind it is in vivo, rat. As for the experimental part:
Northern Blot Analysis. Total RNA was isolated from hypothalami and liver with Trizol (Invitrogen Corp., California, USA). NPY, Glc-6-Pase or PEPCK expression was measured by northern blot analysis. Hypothalamic RNA was analyzed using probes for prepro-NPY and β-actin. To assess the effect of ICV OA on the expression of hepatic enzymes, total RNA was isolated from freeze-clamped liver tissues from rats subjected to insulin clamp studies. Glc-6-Pase and PEPCK cDNA were obtained as previously described (Combs et al., 2001; Massillon et al., 1996; 1998). Probes were labeled with [α-^32P] dCTP using a random primer kit (Stratagene). Quantification was performed by scanning densitometry, normalizing for β-actin signal and 18S ribosomal RNA to correct for loading variabilities. Effect of ICV OA on the hepatic expression of Glc-6-Pase and PEPCK. The potent effects of the central administration of OA on hepatic glucose fluxes prompted us to examine whether changes in the liver mRNA levels of key metabolic enzymes can partly account for these effects. Thus, we next measured the liver abundance of Glc-6-Pase and PEPCK mRNA as a function of 18S ribosomal RNA (FIG. 9d) or β-actin mRNA (not shown) in tissue samples obtained after ICV infusion of either OA or vehicle in caloric restricted and over-fed rats. […]

In the case of `CCCCCCCC/C=C\CCCCCCCC(=O)O` [OA, oleic acid], the “decrease in daily food intake” value in assay [1] (HF140, ICV OA 30 nmol, first day) is reported as 11%; in assay [1] (HF140, ICV OA 30 nmol, second day), −2%; in assay [1] (HS95, ICV OA 30 nmol, first day), 21%; in assay [1] (HS95, ICV OA 30 nmol, second day) it was 17%. For the same molecule, the “decrease in food intake compared with pre-injection basal levels” value came to 48% in assay [1] (ICV OA 30 nmol, first day) and 52% in assay [1] (ICV OA 30 nmol, second day). For the same molecule, the “return to baseline food intake after the OA injection” value in assay [1] (all groups (SC, HS95, HF140)) came out at 3 days. For the same molecule, the “effect on feeding behavior” value in assay [1] (high fat chow) and in assay [1] (high sucrose chow) was “failed to significantly alter feeding behavior” throughout. Besides, the duration of anorexia in assay [1] (standard chow, ICV OA 30 nmol) was 48 h. For the same molecule, the “decrease in food intake” value in assay [1] (standard chow, for 2 days) is listed as about 50%. For the same molecule, in assay [2] (HF55 group, ICV OA vs ICV vehicle), the “suppression of hepatic Glc-6-Pase mRNA expression” value is listed as about 73%. The “hepatic Glc-6-Pase mRNA expression” value in assay [2] (HF140 group) was “no changes detected”.

These data come from US7705016B2, “Regulation of food intake by modulation of long-chain fatty acyl-CoA levels in the hypothalamus” (Albert Einstein College of Medicine of Yeshiva University, priority 2003, dated 2010).
